How the values were obtained:
Candida albicans = test: In vitro antifungal activity, MIC (CMI) by agar dilution method; format: cell-based; details: for nombre de souches sensibles aux concentrations suivantes (en µg/ml): 5 strains
From the text: (§1) Pour l'évaluation des activités antibactérienne et antifongique ont été testées 24 souches de bactéries et 11 de champignons isolées de matériel pathologique humain récent ou provenant de collections internationales, ainsi subdivisées :
(§2) Pour l'activité in vitro on a déterminé la CMI par la méthode des dilutions (milieu agar) selon la technique classique.
(§3) La solution mère des produits à tester (composé de formule I et acide libre de départ) a été préparée par dissolution dans le diméthylsulfoxyde et addition d'eau distillée dans le rapport 1 : 1O. Les solutions ultérieures ont été préparées par dilution avec de l'eau distillée ou avec le terrain minimum essential d'Eagle contenant 3 % de serum de veau.
(§4) Les concentrations ont été exprimées en µg de substance active, calculée comme acide libre, par ml de milieu.

Trichophyton rubrum = test: as above; format: cell-based; details: for nombre de souches sensibles aux concentrations suivantes (en µg/ml): 2 strains
From the text: as §1, §2, §3, §4

[1] = tested on: Trichophyton mentagrophytes; test: as above; format: cell-based; details: for nombre de souches sensibles aux concentrations suivantes (en µg/ml): 4 strains
From the text: as §1, §2, §3, §4

[2] = tested on: Streptococcus epidermidis; test: In vitro antibacterial activity, MIC (CMI) by agar dilution method; format: cell-based; details: 3 strains
From the text: as §1, §2, §3, §4
(§5) Le tableau I montre l'activité antibactérienne in vitro du sel d'argent de formule I ci-dessus (Composé I) et de l'acide libre correspondant (Acide libre), exprimée par le nombre de souches sensibles aux produits testés à des concentrations de 3O à O,O1 µg/ml.

Pseudomonas aeruginosa = test: as above; format: cell-based; details: 4 strains
From the text: as §1, §2, §3, §4, §5

Streptococcus pyogenes = test: as above; format: cell-based; details: 4 strains
From the text: as §1, §2, §3, §4, §5

Streptococcus faecalis = test: as above; format: cell-based; details: 2 strains
From the text: as §1, §2, §3, §4, §5

[3] = tested on: Staphylococcus aureus (pen. rés.); test: as above; format: cell-based; details: 2 penicillin-resistant strains
From the text: as §1, §2, §3, §4, §5

Staphylococcus aureus = test: as above; format: cell-based; details: 4 strains
From the text: as §1, §2, §3, §4, §5

Escherichia coli = test: as above; format: cell-based; details: 5 strains
From the text: as §1, §2, §3, §4, §5

[4] = compared with the corresponding free acid; from European patent 49593; cited from earlier work
[5] = Photosensitivity compared with other antibacterial silver salts; format: physicochemical; details: e.g. sel d'argent de la sulfadiazine, solid state and in solution

## CCn1cc(C(=O)O)c(=O)c2cc(F)c(N3CCNCC3)nc21 [Acide libre, acide 1-éthyl-6-fluoro-1,4-dihydro-4-oxo-7-(1-pipérazinyl)-1,8-naphtyridine-3-carboxylique, reference compound]
Candida albicans; Candida albicans, same 5 strains as Table II, read-out: activité antifongique: inactif jusqu'à des concentrations de
  MIC: > 1 µg/mL
Trichophyton rubrum; Trichophyton rubrum, same 2 strains as Table II, read-out: activité antifongique: inactif jusqu'à des concentrations de
  MIC: > 1 µg/mL
[1]; Trichophyton mentagrophytes, same 4 strains as Table II, read-out: activité antifongique: inactif jusqu'à des concentrations de
  MIC: > 1 µg/mL
[2]; 3 µg/ml (as free acid)
  Nombre de souches sensibles aux concentrations suivantes (µg/ml): 2
[2]; 10 µg/ml (as free acid)
  Nombre de souches sensibles aux concentrations suivantes (µg/ml): 1
Pseudomonas aeruginosa; 0,3 µg/ml (as free acid)
  Nombre de souches sensibles aux concentrations suivantes (µg/ml): 3
Pseudomonas aeruginosa; 1 µg/ml (as free acid)
  Nombre de souches sensibles aux concentrations suivantes (µg/ml): 1
Streptococcus pyogenes; 1 µg/ml (as free acid)
  Nombre de souches sensibles aux concentrations suivantes (µg/ml): 1
Streptococcus pyogenes; 3 µg/ml (as free acid)
  Nombre de souches sensibles aux concentrations suivantes (µg/ml): 1
Streptococcus pyogenes; 10 µg/ml (as free acid)
  Nombre de souches sensibles aux concentrations suivantes (µg/ml): 2
Streptococcus faecalis; 10 µg/ml (as free acid)
  Nombre de souches sensibles aux concentrations suivantes (µg/ml): 1
Streptococcus faecalis; 30 µg/ml (as free acid)
  Nombre de souches sensibles aux concentrations suivantes (µg/ml): 1
[3]; 0,3 µg/ml (as free acid)
  Nombre de souches sensibles aux concentrations suivantes (µg/ml): 1
[3]; 1 µg/ml (as free acid)
  Nombre de souches sensibles aux concentrations suivantes (µg/ml): 1
Staphylococcus aureus; 0,1 µg/ml (as free acid)
  Nombre de souches sensibles aux concentrations suivantes (µg/ml): 1
Staphylococcus aureus; 1 µg/ml (as free acid)
  Nombre de souches sensibles aux concentrations suivantes (µg/ml): 2
Escherichia coli; 0,1 µg/ml (as free acid)
  Nombre de souches sensibles aux concentrations suivantes (µg/ml): 2
Escherichia coli; 0,03 µg/ml (as free acid)
  Nombre de souches sensibles aux concentrations suivantes (µg/ml): 1
Escherichia coli; 0,3 µg/ml (as free acid)
  Nombre de souches sensibles aux concentrations suivantes (µg/ml): 2

## sel d'argent de l'acide 1-éthyl-6-fluoro-1,4-dihydro-4-oxo-7-(1-pipérazinyl)-quinolinyl-3-carboxilique
[4]
  activité antibactérienne: du même ordre que celle de l'acide libre correspondant

## sel d'argent de l'acide 1-éthyl-6-fluoro-1,4-dihydro-4-oxo-7-(1-pipérazinyl)-1,8-naphtyridine-3-carboxylique [Composé I]
[5]
  photosensibilité: moins photosensible
Candida albicans; 3 µg/ml (as free acid)
  nombre de souches sensibles aux concentrations suivantes (en µg/ml): 1
Candida albicans; 10 µg/ml (as free acid)
  nombre de souches sensibles aux concentrations suivantes (en µg/ml): 3
Candida albicans; 30 µg/ml (as free acid)
  nombre de souches sensibles aux concentrations suivantes (en µg/ml): 1
Trichophyton rubrum; 10 µg/ml (as free acid)
  nombre de souches sensibles aux concentrations suivantes (en µg/ml): 1
Trichophyton rubrum; 30 µg/ml (as free acid)
  nombre de souches sensibles aux concentrations suivantes (en µg/ml): 1
[1]; 3 µg/ml (as free acid)
  nombre de souches sensibles aux concentrations suivantes (en µg/ml): 1
[1]; 10 µg/ml (as free acid)
  nombre de souches sensibles aux concentrations suivantes (en µg/ml): 2
[1]; 30 µg/ml (as free acid)
  nombre de souches sensibles aux concentrations suivantes (en µg/ml): 1
[2]; 0,3 µg/ml (as free acid)
  Nombre de souches sensibles aux concentrations suivantes (µg/ml): 1
[2]; 1 µg/ml (as free acid)
  Nombre de souches sensibles aux concentrations suivantes (µg/ml): 1
[2]; 3 µg/ml (as free acid)
  Nombre de souches sensibles aux concentrations suivantes (µg/ml): 1
Pseudomonas aeruginosa; 0,1 µg/ml (as free acid)
  Nombre de souches sensibles aux concentrations suivantes (µg/ml): 3
Pseudomonas aeruginosa; 0,03 µg/ml (as free acid)
  Nombre de souches sensibles aux concentrations suivantes (µg/ml): 1
Streptococcus pyogenes; 1 µg/ml (as free acid)
  Nombre de souches sensibles aux concentrations suivantes (µg/ml): 1
Streptococcus pyogenes; 3 µg/ml (as free acid)
  Nombre de souches sensibles aux concentrations suivantes (µg/ml): 2
Streptococcus pyogenes; 10 µg/ml (as free acid)
  Nombre de souches sensibles aux concentrations suivantes (µg/ml): 1
Streptococcus faecalis; 1 µg/ml (as free acid)
  Nombre de souches sensibles aux concentrations suivantes (µg/ml): 1
Streptococcus faecalis; 3 µg/ml (as free acid)
  Nombre de souches sensibles aux concentrations suivantes (µg/ml): 1
[3]; 0,1 µg/ml (as free acid)
  Nombre de souches sensibles aux concentrations suivantes (µg/ml): 1
[3]; 0,3 µg/ml (as free acid)
  Nombre de souches sensibles aux concentrations suivantes (µg/ml): 1
Staphylococcus aureus; 0,1 µg/ml (as free acid)
  Nombre de souches sensibles aux concentrations suivantes (µg/ml): 3
Staphylococcus aureus; 0,3 µg/ml (as free acid)
  Nombre de souches sensibles aux concentrations suivantes (µg/ml): 1
Escherichia coli; 0,1 µg/ml (as free acid)
  Nombre de souches sensibles aux concentrations suivantes (µg/ml): 2
Escherichia coli; 0,03 µg/ml (as free acid)
  Nombre de souches sensibles aux concentrations suivantes (µg/ml): 1
Escherichia coli; 0,3 µg/ml (as free acid)
  Nombre de souches sensibles aux concentrations suivantes (µg/ml): 2
